Assay results: PubChem BioAssay AID2060337 (Molecular Pharmacology Branch, DTP, NCI, 2025)
pIC50: −log10 of the molar value. Where “and” joins values, the source holds several entries; their conditions need not be identical. Identical values can stand only once. Values belong to the compound of their own block, whether it stands above or below them.

Tested on: 832693-133-R-J1-PDC multi-cell spheroids, viability
Assay: Anticancer human tumor 832693-133-R-J1-PDC patient-derived head and neck squamous carcinoma cell line growth inhibition [IpAb]
Details: for viability, T/C: stronger effect = lower value
Excerpt: Combinatorial screen of targeted agents with ipatasertib and abemaciclib in multi-cell type tumor spheroids
A high-throughput screen of multi-cell type tumor spheroids was designed to identify active combinations of targeted small molecules and ipatasertib or abemaciclib. Complex spheroids include a stromal component modeled by human endothelial cells (HUVEC) and fibroblasts modeled by human mesenchymal stem cells (MSCs). The concentration ranges selected for each drug and investigational agent were based upon clinically achievable concentrations if the clinical Cmax of the agent was known.
Compounds. The drugs and investigational agents: ipatasertib (NSC767898), abemaciclib(NSC768073), selumetinib (NSC741078), trametinib (758246), adavosertib (NSC754352), everolimus (NSC733504), sapanisertib (NSC764658), vemurafenib (NSC761431), venetoclax (NSC766270), copanlisib (NSC809693), apelisib (NSC765974), palbociblib (NSC758247), vemurafenib (NSC761431), dabrafenib (NSC764134), ravoxertinib (NSC781343), BMS-387032 (NSC767048), sotorasib (NSC818433), talazoparib (NSC767125) and afursertib (NSC778305), were obtained from the National Cancer Institute (NCI) Developmental Therapeutics Program Chemical Repository. The FDA-approved anticancer drug set is available from the NCI Developmental Therapeutics Program. […] The stock solutions were prepared in dimethyl sulfoxide (DMSO, Sigma-Aldrich, St. Louis, MO, cat. D2650) at 800-fold the tested concentration and stored at -70 degrees C prior to their use. All drugs and investigational agents were tested over a range starting from a high concentration at or near the clinical Cmax and decreasing in half-log increments. If the clinical Cmax for an agent had not been determined, the highest concentration tested was 10 microM.
NCI60 Cell Culture. NCI60 cell lines were obtained from the NCI Developmental Therapeutics Program Tumor Repository. For each lot of cells, the Repository performed Applied Biosystems AmpFLSTR Identifiler testing with PCR amplification to confirm consistency with the published Identifier STR profile for each cell line. Cells were kept in continuous culture for no more than 20 passages. The optimal seeding densities for each of the cell lines at each time point assessed were determined prior to performing the concentration response studies. Briefly, the NCI60 human tumor lines were grown as monolayers in RPMI 1640 medium supplemented with 10% FBS and 2 mmol/L L-glutamine.
An additional 9 lines were from the NCI60 cell line panel including MDA-MB-231 breast carcinoma, MDA-MB-468 breast carcinoma, MCF7 breast carcinoma, Hs578T breast carcinoma, MALME-3M melanoma, SK-MEL-2 melanoma, SK-OV-3 ovarian carcinoma, DU-145 prostate carcinoma, PC-3 prostate carcinoma, all cell lines along with major genetic alterations are listed on Table 2. Pooled donor human umbilical vein endothelial cells (HUVEC, Lonza, cat. CC-2519) and human mesenchymal stem cells (hMSC, Lonza, cat. PT-2501) were purchased from Lonza (Walkersville, MD).
PDMR cell lines were grown in complete medium (DC medium): Dulbecco's modified Eagle's medium (DMEM)/F12 supplemented with 5% fetal bovine serum (FBS), 2 mM L-glutamine, 100 U/mL penicillin and 100 µg/ml streptomycin, 0.4 µg/ml hydrocortisone, 10 ng/ml epidermal growth factor (EGF) recombinant human protein, 24 µg/mL adenine, and 0.1 mg/mL primocin. During culture from frozen stock vials, PDMR cells were cultured in the same medium containing 10 µM Y-27632 (see Table 3). The PDCs were cultured in complete DMEM/F12 media without 10 microM Y-27632 dihydrochloride for at least two passages prior to the screen. The pooled donor HUVEC and hMSC were cultured in endothelial cell growth medium 2 (PromoCell, Heidelberg, Germany, cat. C-22011) and mesenchymal stem cell growth medium 2 (PromoCell, cat. C-28009), respectively. For all experiments, HUVEC and hMSC were used at passages </=5.
[…]

[1] = curve of first compound, second compound 0.1 µM
[2] = curve of first compound, second compound 0.316 µM
[3] = curve of first compound, second compound 1 µM
[4] = second compound 0.1 µM, first compound 0.0316 µM
[5] = second compound 0.1 µM, first compound 0.1 µM
[6] = second compound 0.1 µM, first compound 0.316 µM
[7] = second compound 0.1 µM, first compound 1 µM
[8] = second compound 0.1 µM, first compound 3.16 µM
[9] = second compound 0.1 µM, first compound 10 µM
[10] = second compound 0.316 µM, first compound 0.0316 µM
[11] = second compound 0.316 µM, first compound 0.1 µM
[12] = second compound 0.316 µM, first compound 0.316 µM
[13] = second compound 0.316 µM, first compound 1 µM
[14] = second compound 0.316 µM, first compound 3.16 µM
[15] = second compound 0.316 µM, first compound 10 µM
[16] = second compound 1 µM, first compound 0.0316 µM
[17] = second compound 1 µM, first compound 0.1 µM
[18] = second compound 1 µM, first compound 0.316 µM
[19] = second compound 1 µM, first compound 1 µM
[20] = second compound 1 µM, first compound 3.16 µM
[21] = second compound 1 µM, first compound 10 µM
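Also: spheroids exposed to the drugs for one week before the viability readout.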
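For viability, T/C in this document: 100% = DMSO vehicle control wells.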

Compound: Cc1nc(NC(=O)N2CCCC2C(N)=O)sc1-c1ccnc(C(C)(C)C(F)(F)F)c1 (stereo unspecified) + CCN1CCN(Cc2ccc(Nc3ncc(F)c(-c4cc(F)c5nc(C)n(C(C)C)c5c4)n3)nc2)CC1
pIC50 (curve of first compound, second compound 0.01 µM): 6.27
pIC50 (curve of first compound, second compound 0.0316 µM): 6.58
pIC50 [1]: 6.86
pIC50 [2]: 6.89
pIC50 [3]: 7.44
viability, T/C (second compound 0.01 µM, first compound 0.0316 µM): 80.1%
viability, T/C (second compound 0.01 µM, first compound 0.1 µM): 87.8%
viability, T/C (second compound 0.01 µM, first compound 0.316 µM): 65.7%
viability, T/C (second compound 0.01 µM, first compound 1 µM): 29.2%
viability, T/C (second compound 0.01 µM, first compound 3.16 µM): 16.2%
viability, T/C (second compound 0.01 µM, first compound 10 µM): 3.69%
viability, T/C (second compound 0.0316 µM, first compound 0.0316 µM): 75.8%
viability, T/C (second compound 0.0316 µM, first compound 0.1 µM): 69%
viability, T/C (second compound 0.0316 µM, first compound 0.316 µM): 46%
viability, T/C (second compound 0.0316 µM, first compound 1 µM): 21.4%
viability, T/C (second compound 0.0316 µM, first compound 3.16 µM): 10.5%
viability, T/C (second compound 0.0316 µM, first compound 10 µM): 3.09%
viability, T/C [4]: 57.4%
viability, T/C [5]: 53.5%
viability, T/C [6]: 42.3%
viability, T/C [7]: 21.4%
viability, T/C [8]: 11.4%
viability, T/C [9]: 2.17%
viability, T/C [10]: 55.4%
viability, T/C [11]: 49.4%
viability, T/C [12]: 44.9%
viability, T/C [13]: 19.4%
viability, T/C [14]: 11.5%
viability, T/C [15]: 2.65%
viability, T/C [16]: 49.7%
viability, T/C [17]: 48%
viability, T/C [18]: 37.6%
viability, T/C [19]: 25.1%
viability, T/C [20]: 14%
viability, T/C [21]: 6.29%

Compound: CCCS(=O)(=O)Nc1ccc(F)c(C(=O)c2c[nH]c3ncc(-c4ccc(Cl)cc4)cc23)c1F + CC(C)NCC(C(=O)N1CCN(c2ncnc3c2C(C)CC3O)CC1)c1ccc(Cl)cc1
pIC50 [1]: 5.09
pIC50 [2]: < 5.00
pIC50 [3]: < 5.00
pIC50 (curve of first compound, second compound 3.16 µM): < 5.00
pIC50 (curve of first compound, second compound 10 µM): < 5.00
viability, T/C [4]: 99.1%
viability, T/C [5]: 102%
viability, T/C [6]: 92.5%
viability, T/C [7]: 91.1%
viability, T/C [8]: 88.1%
viability, T/C [9]: 41.4%
viability, T/C [10]: 79.5%
viability, T/C [11]: 79.2%
viability, T/C [12]: 93%
viability, T/C [13]: 92.9%
viability, T/C [14]: 110%
viability, T/C [15]: 56.9%
viability, T/C [16]: 60.1%
viability, T/C [17]: 66.3%
viability, T/C [18]: 66.7%
viability, T/C [19]: 85.6%
viability, T/C [20]: 139%
viability, T/C [21]: 103%
viability, T/C (second compound 3.16 µM, first compound 0.0316 µM): 54.2%
viability, T/C (second compound 3.16 µM, first compound 0.1 µM): 54.8%
viability, T/C (second compound 3.16 µM, first compound 0.316 µM): 62.6%
viability, T/C (second compound 3.16 µM, first compound 1 µM): 82.2%
viability, T/C (second compound 3.16 µM, first compound 3.16 µM): 126%
viability, T/C (second compound 3.16 µM, first compound 10 µM): 92%
viability, T/C (second compound 10 µM, first compound 0.0316 µM): 53.5%
viability, T/C (second compound 10 µM, first compound 0.1 µM): 60.5%
viability, T/C (second compound 10 µM, first compound 0.316 µM): 61.5%
viability, T/C (second compound 10 µM, first compound 1 µM): 68.7%
viability, T/C (second compound 10 µM, first compound 3.16 µM): 98.8%
viability, T/C (second compound 10 µM, first compound 10 µM): 56.1%

Compound: C=CC(=O)N1CCN(c2nc(=O)n(-c3c(C)ccnc3C(C)C)c3nc(-c4c(O)cccc4F)c(F)cc23)C(C)C1 (stereo unspecified)
viability, T/C (compound 0.0316 µM): 105% and 95%
viability, T/C (compound 0.1 µM): 108% and 101%
viability, T/C (compound 0.316 µM): 111% and 103%
viability, T/C (compound 1 µM): 114% and 115%
viability, T/C (compound 3.16 µM): 122% and 110%
viability, T/C (compound 10 µM): 100% and 98.5%
pIC50 (curve of compound): < 5.00

The next lines start with results.

pIC50 (curve of compound): 6.62 and 6.78
Compound: Cn1cnc2c(F)c(Nc3ccc(Br)cc3Cl)c(C(=O)NOCCO)cc21
viability, T/C (compound 0.00949 µM): 79.6% and 64.7%
viability, T/C (compound 0.03 µM): 69.7% and 59.6%
viability, T/C (compound 0.0949 µM): 57.5% and 53.9%
viability, T/C (compound 0.3 µM): 48.1% and 43.7%
viability, T/C (compound 0.949 µM): 38.3% and 35.9%
viability, T/C (compound 3 µM): 19.1% and 15%

pIC50 (curve of compound): 6.68 and 6.66
Compound: C=CCn1c(=O)c2cnc(Nc3ccc(N4CCN(C)CC4)cc3)nc2n1-c1cccc(C(C)(C)O)n1
viability, T/C (compound 0.0316 µM): 94% and 91.3%
viability, T/C (compound 0.1 µM): 79.8% and 71.9%
viability, T/C (compound 0.316 µM): 32.5% and 35.4%
viability, T/C (compound 1 µM): 27% and 31.5%
viability, T/C (compound 3.16 µM): 25.9% and 28.6%
viability, T/C (compound 10 µM): 12.5% and 11.7%
